In the supplement of paper PMC10307832:

Compound: CN(C)C(=N)NC(=N)N [Metformin] + C[C@]1(O)C[C@@H](c2nc(-c3ccc4ccc(-c5ccccc5)nc4c3)c3c(N)nccn32)C1 [Linsitinib] (partner 1 µM)
Assay: relative viability (nuclei count vs DMSO), 5 days (fraction); higher = more cells survive
Conditions: first compound 10 µM
In short: (§1)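 Nuclei were stained with Hoechst during a one-step fixation (final 0.05% Triton X-100, 1% formaldehyde, 1 ug/ml Hoechst) carried out 5 days after dosing, then counted on 4× images. The cells, lung cancer lines in 1536-well plates, had been dosed by pin tool the day after seeding with one drug alone or a fixed anchor-drug dose plus five library-drug doses (not always all listed) in √10 steps. Relative viability is the nuclei count in treated wells divided by that in vehicle wells, and each value is the median of duplicate plates.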

Row | Cell Line | relative viability
1 | LU99A | 0.493
2 | LXF-289 | 0.923
3 | NCI-H23 | 0.701
4 | NCI-H322M | 1.04
5 | NCI-H358 | 1.04
6 | NCI-H520 | 1.09
7 | NCI-H596 | 1.11
8 | NCI-H647 | 1.11
9 | NCI-H650 | 0.859
10 | NCI-H661 | 0.761
11 | NCI-H727 | 0.289
12 | NCI-H838 | 1.04
13 | NCI-H1355 | 0.782
14 | NCI-H1437 | 1.22
15 | NCI-H1563 | 1.22
16 | NCI-H1651 | 1.3
17 | NCI-H1666 | 0.863
18 | NCI-H1734 | 0.99
19 | NCI-H1755 | 0.842
20 | NCI-H1944 | 1.36
21 | NCI-H1975 | 1.09
22 | NCI-H1993 | 0.719
23 | NCI-H2009 | 1.22
24 | NCI-H2085 | 0.822
25 | NCI-H2087 | 0.609
26 | NCI-H2126 | 0.633
27 | NCI-H2228 | 0.542
28 | NCI-H2347 | 0.753
29 | NCI-H2405 | 0.845
30 | NCI-H3122 | 0.89

Same assay, conditions: first compound 31.62 µM

Row | Cell Line | relative viability
31 | LU99A | 0.491
32 | LXF-289 | 0.912
33 | NCI-H23 | 0.623
34 | NCI-H322M | 0.954
35 | NCI-H358 | 0.937
36 | NCI-H520 | 0.842
37 | NCI-H596 | 1.18
38 | NCI-H647 | 1.14
39 | NCI-H650 | 0.955
40 | NCI-H661 | 0.966
41 | NCI-H727 | 0.342
42 | NCI-H838 | 1.09
43 | NCI-H1355 | 0.783
44 | NCI-H1437 | 1.09
45 | NCI-H1563 | 1.34
46 | NCI-H1651 | 1.23
47 | NCI-H1666 | 1

Row | Cell Line | relative viability
48 | NCI-H1734 | 0.954
49 | NCI-H1755 | 0.84
50 | NCI-H1792 | 0.742
51 | NCI-H1915 | 1.22
52 | NCI-H1944 | 1.39
53 | NCI-H1975 | 1.26
54 | NCI-H1993 | 0.73
55 | NCI-H2009 | 1.17
56 | NCI-H2023 | 0.687
57 | NCI-H2085 | 0.8
58 | NCI-H2087 | 0.908
59 | NCI-H2126 | 0.735
60 | NCI-H2228 | 0.973
61 | NCI-H2347 | 0.89
62 | NCI-H2405 | 0.92
63 | NCI-H3122 | 0.98

Same assay, conditions: first compound 100 µM

Row | Cell Line | relative viability
64 | LU99A | 0.466
65 | LXF-289 | 0.996
66 | NCI-H23 | 0.705
67 | NCI-H322M | 0.934
68 | NCI-H358 | 0.959
69 | NCI-H520 | 1.02
70 | NCI-H596 | 1.32
71 | NCI-H647 | 1.24
72 | NCI-H650 | 0.845
73 | NCI-H661 | 0.812
74 | NCI-H727 | 0.304
75 | NCI-H838 | 1.05
76 | NCI-H1355 | 0.756
77 | NCI-H1437 | 1.11
78 | NCI-H1563 | 1.19
79 | NCI-H1651 | 1.35

Row | Cell Line | relative viability
80 | NCI-H1666 | 0.962
81 | NCI-H1734 | 1.05
82 | NCI-H1755 | 0.871
83 | NCI-H1792 | 0.803
84 | NCI-H1915 | 1.15
85 | NCI-H1944 | 1.34
86 | NCI-H1975 | 1.07
87 | NCI-H1993 | 0.838
88 | NCI-H2009 | 1.17
89 | NCI-H2023 | 0.806
90 | NCI-H2085 | 0.765
91 | NCI-H2087 | 0.805
92 | NCI-H2126 | 0.687
93 | NCI-H2347 | 0.973
94 | NCI-H2405 | 0.981
95 | NCI-H3122 | 0.949

Same assay, conditions: first compound 316.23 µM

Row | Cell Line | relative viability
96 | LU99A | 0.377
97 | LXF-289 | 0.879
98 | NCI-H23 | 0.675
99 | NCI-H322M | 0.864
100 | NCI-H358 | 1.13
101 | NCI-H520 | 0.914
102 | NCI-H596 | 1.08
103 | NCI-H647 | 1.19
104 | NCI-H650 | 0.983
105 | NCI-H661 | 0.767
106 | NCI-H727 | 0.298
107 | NCI-H838 | 0.988
108 | NCI-H1355 | 0.731
109 | NCI-H1437 | 1.1
110 | NCI-H1563 | 0.955
111 | NCI-H1651 | 1.21

Row | Cell Line | relative viability
112 | NCI-H1666 | 0.703
113 | NCI-H1734 | 0.844
114 | NCI-H1755 | 0.843
115 | NCI-H1792 | 0.632
116 | NCI-H1915 | 1.14
117 | NCI-H1944 | 1.27
118 | NCI-H1975 | 1.18
119 | NCI-H1993 | 0.686
120 | NCI-H2009 | 0.781
121 | NCI-H2085 | 0.844
122 | NCI-H2087 | 0.712
123 | NCI-H2126 | 0.703
124 | NCI-H2228 | 0.583
125 | NCI-H2347 | 0.862
126 | NCI-H2405 | 0.882
127 | NCI-H3122 | 0.96

Same assay, conditions: first compound 1000 µM

Row | Cell Line | relative viability
128 | LU99A | 0.514
129 | LXF-289 | 0.915
130 | NCI-H23 | 0.763
131 | NCI-H322M | 0.915
132 | NCI-H358 | 1.31
133 | NCI-H520 | 0.931
134 | NCI-H596 | 1.25
135 | NCI-H647 | 1.2
136 | NCI-H650 | 1.3
137 | NCI-H661 | 0.677
138 | NCI-H727 | 0.35
139 | NCI-H838 | 1.02
140 | NCI-H1355 | 0.854
141 | NCI-H1437 | 1.19
142 | NCI-H1563 | 0.893
143 | NCI-H1651 | 1.43
144 | NCI-H1666 | 1.09

Row | Cell Line | relative viability
145 | NCI-H1734 | 0.946
146 | NCI-H1755 | 0.914
147 | NCI-H1792 | 0.664
148 | NCI-H1915 | 1.11
149 | NCI-H1944 | 1.26
150 | NCI-H1975 | 1.31
151 | NCI-H1993 | 0.705
152 | NCI-H2009 | 0.9
153 | NCI-H2023 | 0.515
154 | NCI-H2085 | 0.875
155 | NCI-H2087 | 0.782
156 | NCI-H2126 | 0.721
157 | NCI-H2228 | 0.889
158 | NCI-H2347 | 0.943
159 | NCI-H2405 | 0.436
160 | NCI-H3122 | 0.92

Compound: N#CC1(c2ccc(NC(=O)c3cccnc3NCc3ccncc3)cc2)CCCC1 [Apatinib] + COc1cccc2cc(-c3nc([C@H]4CC[C@H](C(=O)O)CC4)n4ncnc(N)c34)[nH]c12 [OSI-027] (partner 0.5 µM)
Assay: as above
Conditions: first compound 0.08 µM
In short: as §1

Row | Cell Line | relative viability
161 | LU99A | 0.317
